Five molecules from patent publication US11752077B2, “Oily moisturizer and topical skin composition containing same” (The Nisshin OilliO Group, Ltd., priority 2017, dated 2023) can be followed below.

The test system of test [1] is stratum corneum moisture content of the skin (forearm). The test is described as follows: Evaluation test of moisture retention effect upon single application (esterified products, oils, glycerol applied neat). The test is classed as in vivo, human. The procedure: In the present invention, the moisture retention effect of the esterified product, namely the improvement effect on the moisture retention function of the skin, was evaluated based on the change in the stratum corneum moisture content of the skin before and after application of the esterified product. Measurement of the stratum corneum moisture content was performed using a stratum corneum moisture content measuring device (device name: SKICON-200), manufactured by IBS Co., Ltd. This stratum corneum moisture content measuring device is a device that is widely used for measuring the moisturestate of the stratum corneum, and is a device that measures the electrical conductivity (μS) of the stratum corneum. The larger the skin moisture content, the higher the electrical conductivity of the stratum corneum becomes. Accordingly, the electrical conductivity (μS) measured using the stratum corneum moisture content measuring device was deemed to indicate the stratum corneum moisture content. The skin moisture retention effect of each test sample was evaluated by applying the test sample directly to washed skin, and then measuring the change in the skin stratum corneum moisture content after wiping the test sample off the skin using a cotton swab soaked in hexane. The skin stratum corneum moisture content measurement test was conducted on a plurality of panelists in the season from autumn to spring when the skin is prone to dryness. Further, in order to remove the effects of room temperature and humidity on the measurement results, the tests were performed in a room in which the room temperature had been adjusted to 18 to 22° C. and the humidity had been adjusted to 40 to 55% RH. Specifically, first, the forearm of the person was washed with soap, and the person was then held for 30 minutes in a room in which the room temperature and the humidity had been controlled within the above ranges to acclimatize the skin of the forearm to the measurement environment, thus completing preparations for the initial conditions for measurement. […] Subsequently, 40 μL of the test sample being evaluated was applied uniformly to the square measurement region of the forearm. Sixty minutes after the application, a cotton swab that had been immersed in hexane was used to wipe off the test sample, and 30 minutes after the test sample had been wiped off, the stratum corneum moisture content of the wiped region of the skin (the stratum corneum moisture content upon test completion) was measured. Further, when evaluating the moisture retention effect of the test sample, in order to consider and subtract the change in the state of the skin during the measurement period, the stratum corneum moisture content of a portion of the skin to which the sample had not been applied was also measured prior to test commencement and upon test completion, and the change in the stratum corneum moisture content of this uncoated portion was calculated. A moisture retention effect value (μS) was determined from the measured values for the skin stratum corneum moisture content based on the formulas below. The moisture retention effect value (μS) for each test sample was calculated as the average value for the moisture retention effect values (μS) across five panelists. […] Based on the moisture retention effect value (μS) for each test sample, the moisture retention effect of each test sample was evaluated using the criteria in Table 43. […] Using various commercially available oils and glycerol, the <Evaluation of moisture retention upon single application> described above was conducted to ascertain the moisture retention effect. […] The glycerol of Comparative Example 21 is a typical aqueous moisturizer, and is widely used as a moisturizer. […] With the exception of changing the removal solvent from hexane to water, the evaluation conditions were the same as those described above in the <Evaluation of moisture retention upon single application>.

Test [2] has the same test system. The description is as above. The settings on record: 60 minutes after application, glycerol still applied to the skin surface, prior to removal using water. The test is classed as in vivo, human.
The mark [3] stands for this setting: esterified product applied neat, 40 μL on 3 cm x 3 cm forearm region, wiped off with hexane after 60 minutes, measured 30 minutes later, average of five panelists.
Setting [4] is: single application of commercially available oil or glycerol to skin, measured after removal (hexane swab; water swab for glycerol).
Setting [5] is: single application of commercially available oil or glycerol, class from moisture retention effect value.
The mark [6] stands for this setting: esterified product applied neat, 40 μL on forearm, wiped off with hexane after 60 minutes, measured 30 minutes later, five panelists.

As for `CC(C)CCCCCCCCCCCCCCC(=O)OCC(C)C` [Comparative Example 9, isobutyl isostearate], the “Moisture retention effect value” in test [1] (setting [3]) is listed as 47 μS.

`CCCCC(CC)C(=O)OCC(COC(=O)C(CC)CCCC)OC(=O)C(CC)CCCC` (centres unmarked) [Comparative Example 14, glyceryl tri(2-ethylhexanoate)]: the “Moisture retention effect value” in test [1] (setting [4]) worked out at 32 μS. Moreover, the “Moisture retention evaluation result” value in test [1] (setting [5]) is “e1 (less than 40)”.

In the case of `OCC(O)CO` [Comparative Example 21, glycerol], the “increase in the electrical conductivity that corresponds with the moisture retention effect value” in test [2] stood at 477 μS. Besides, the “Moisture retention effect value” in test [1] (removal after 60 minutes with cotton swab immersed in water rather than hexane, measured 30 minutes later) stood at 8 μS; in test [1] (setting [4]), 8 μS. The “Moisture retention evaluation result” value in test [1] (setting [5]) was “e1 (less than 40)”.

Turning to “caprate ester of ditrimethylolpropane [Example 3]”, the “Moisture retention effect value” in test [1] (setting [3]) came out at 70 μS. Besides, the “Moisture retention evaluation result” value in test [1] (setting [6]) is “a1 (70 or greater)”.

For the molecule “caprylate ester of ditrimethylolpropane [Example 2]”, the “Moisture retention effect value” in test [1] (setting [3]) stood at 87 μS. The “Moisture retention evaluation result” value in test [1] (setting [6]) is “a1 (70 or greater)”.
